Test results published in patent US4415584A, “3-Oxo-6-oxa-2-azatricyclo 5.4.2. unadecene-4-carboxylate” (Beecham Group Limited, priority 1978, dated 1983).

Key:
Staph. aureus Russell [1] = experiment: Antibacterial Activity (Example 4), M.I.C.; assay type: cell-based; settings: compound alone
E. coli JT39 [2] = experiment: Antibacterial Activity (Example 4), M.I.C.; assay type: cell-based; settings: compound alone
Kleb. aerogenes E70 [3] = experiment: Antibacterial Activity (Example 4), M.I.C.; assay type: cell-based, Klebsiella aerogenes; settings: compound alone
P. mirabilis C889 [4] = experiment: Antibacterial Activity (Example 4), M.I.C.; assay type: cell-based, Proteus mirabilis; settings: compound alone
Klebsiella aerogenes E70 = experiment: Antibacterial Synergy (Example 13), MIC; assay type: cell-based
Protocol: (§1) The MIC's of ampicillin, the product of Example 10 (synergist) and ampicillin in the presence of the product of Example 10 were determined for a range of bacteria.

Staph. aureus Russell [5] = experiment: Antibacterial Synergy (Example 13), MIC; assay type: cell-based
Protocol: as §1

E. coli JT39 [6] = experiment: Antibacterial Synergy (Example 13), MIC; assay type: cell-based
Protocol: as §1

Proteus mirabilis C889 = experiment: Antibacterial Synergy (Example 13), MIC; assay type: cell-based
Protocol: as §1

mice = experiment: Toxicity, intraperitoneal administration to mice; assay type: in vivo; settings: dosages up to 750 mg/kg
Protocol: The compound of Example 1 (Isomer II) was administered intraperitoneally to mice.

Staph. aureus Russell [7] = experiment: Antibacterial Synergy (Example 4), MIC for ampicillin; assay type: cell-based; settings: ampicillin alone, no inhibitor
Kleb. aerogenes E70 [8] = experiment: as above; assay type: cell-based, Klebsiella aerogenes; settings: ampicillin alone, no inhibitor
E. coli JT39 [9] = experiment: as above; assay type: cell-based; settings: ampicillin alone, no inhibitor
P. mirabilis C889 [10] = experiment: as above; assay type: cell-based, Proteus mirabilis; settings: ampicillin alone, no inhibitor
E. coli E96 (RTEM) = assay type: in vivo, mice infected with E. coli; settings: amoxycillin alone; printed × 2 (dosed at 1 and 5 hours after infection); mice
Protocol: Groups of mice were infected intraperitoneally with E. coli E96 (RTEM), and were then dosed at 1 and 5 hours after infection with amoxycillin or amoxycillin and the compound of Example 3.

[11] = ampicillin + synergist at 20 μg/ml

In the case of `O=C(O)[C@H]1CC=C2O[C@@H]3CC(=O)N3[C@H]2C1` [Example 3, Sodium (1S, 5R)-Δ^7,8-3-oxo-6-oxa-2-azatricyclo-[5.4.0.0^2,5]undecene-10-carboxylate], the M.I.C. (Staph. aureus Russell [1]) is reported as 125 µg/mL, the M.I.C. (E. coli JT39 [2]) is reported as 250 µg/mL and the M.I.C. (Kleb. aerogenes E70 [3]) is reported as over 500 µg/mL. It also gave a M.I.C. (P. mirabilis C889 [4]) of over 500 µg/mL.
For `O=C(O)C1CC=C2O[C@@H]3CC(=O)N3C2C1` (single isomer, unassigned) [Example 10], the “MIC Ampicillin” value (Klebsiella aerogenes E70; [11]) was “inhibition”, the MIC (Klebsiella aerogenes E70; synergist alone) was 31.2 µg/mL and the MIC (Staph. aureus Russell [5]; Staphylococcus aureus, synergist alone) was 125 µg/mL. The MIC (E. coli JT39 [6]; Escherichia coli, synergist alone) was 16 µg/mL, the “MIC Ampicillin” value (E. coli JT39 [6]; [11]) was “inhibition” and the “MIC Ampicillin” value (Proteus mirabilis C889; [11]) was “inhibition”. For the same compound, the MIC (Proteus mirabilis C889; synergist alone) was 31.2 µg/mL.
With `COC(=O)C1CC=C2OC3CC(=O)N3C2C1` (single isomer, unassigned) [Example 1 (Isomer II)] the “deaths after 10 days” value (mice) was “no deaths were observed at dosages up to 750 mg/kg”, the M.I.C. (Staph. aureus Russell [1]) was 125 µg/mL and the M.I.C. (Kleb. aerogenes E70 [3]) was over 500 µg/mL. The M.I.C. (P. mirabilis C889 [4]) was over 500 µg/mL.
`O=C(OCc1ccccc1)C1CC=C2OC3CC(=O)N3C2C1` (single isomer, unassigned) [2 (Isomer II)] was tested, and the M.I.C. (Staph. aureus Russell [1]) was 62.5 µg/mL, the M.I.C. (E. coli JT39 [2]) was over 500 µg/mL and the M.I.C. (Kleb. aerogenes E70 [3]) was over 500 µg/mL. It also gave a M.I.C. (P. mirabilis C889 [4]) of over 500 µg/mL.
For `CC1(C)S[C@@H]2[C@H](NC(=O)[C@H](N)c3ccccc3)C(=O)N2[C@H]1C(=O)O` [ampicillin, reference compound], the MIC for ampicillin (Staph. aureus Russell [7]) was over 500 µg/mL, the “MIC Ampicillin” value (Klebsiella aerogenes E70; synergist concentration 0) was 500 µg/mL and the “MIC Ampicillin” value (Staph. aureus Russell [5]; synergist concentration 0) was 500 µg/mL. The “MIC Ampicillin” value (E. coli JT39 [6]; synergist concentration 0) was over 2000 µg/mL, the “MIC Ampicillin” value (Proteus mirabilis C889; synergist concentration 0) was over 2000 µg/mL and the MIC for ampicillin (Kleb. aerogenes E70 [8]) was 2000 µg/mL. It also gave an MIC for ampicillin (E. coli JT39 [9]) of 500 µg/mL and an MIC for ampicillin (P. mirabilis C889 [10]) of 2000 µg/mL.
`CC1(C)S[C@@H]2[C@H](NC(=O)[C@H](N)c3ccc(O)cc3)C(=O)N2[C@H]1C(=O)O` [Amoxycillin, amoxycillin] gave a CD50 (E. coli E96 (RTEM)) of 1000 mg/kg.
